Laboratory results published in PubChem BioAssay AID248 (DTP/NCI, 2004).
Inconclusive results and toxic doses are left out. Rule as the data show it: active = T/C of 150% or more; inactive = T/C below 125%.

System: L1210 leukemia ip in BDF1 mice, survival T/C
Experiment: NCI In Vivo Anticancer Drug Screen. Data for tumor model L1210 Leukemia (intraperitoneal) in B6D2F1 (BDF1) mice
Conditions: endpoint: mean survival time, higher = longer survival
In short: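 Transplantable tumor model; survival measured in treated vs vehicle control mice. Value = treated/control.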

[1] = dose: 100.0 mg/kg/injection, schedule: Q04DX003 (ip), vehicle: saline with Tween-80
[2] = dose: 200.0 mg/kg/injection, schedule: Q04DX003 (ip), vehicle: saline with Tween-80
[3] = dose: 400.0 mg/kg/injection, schedule: Q04DX003 (ip), vehicle: saline with Tween-80
[4] = dose: 100.0 mg/kg/injection, schedule: Q01DX009 (ip), vehicle: saline with Tween-80
[5] = dose: 200.0 mg/kg/injection, schedule: Q01DX009 (ip), vehicle: saline with Tween-80

Measured: T/C

[Cu+2].[Cu+2].[O-]CCCN=Cc1ccccc1[O-].[O-]CCCN=Cc1ccccc1[O-]
inactive: dose: 75.0 mg/kg/injection, schedule: Q01DX001 (ip), vehicle: other 97 % of control | dose: 150.0 mg/kg/injection, schedule: Q01DX001 (ip), vehicle: other 111 % of control | dose: 300.0 mg/kg/injection, schedule: Q01DX001 (ip), vehicle: other 102 % of control

O=C(O)c1cccn1-c1cccc2c(-n3cccc3C(=O)O)cccc12
inactive: dose: 50.0 mg/kg/injection, schedule: Q04DX002 (ip), vehicle: saline + alcohol 99 % of control | dose: 100.0 mg/kg/injection, schedule: Q04DX002 (ip), vehicle: saline + alcohol 89 % of control | dose: 200.0 mg/kg/injection, schedule: Q04DX002 (ip), vehicle: saline + alcohol 96 % of control

NC(CSS(=O)(=O)O)=NCCCc1c[nH]c2ccccc12
inactive: dose: 12.5 mg/kg/injection, schedule: Q04DX002 (ip), vehicle: Klucel (hydroxypropylcellulose) (HPC) 100 % of control | dose: 25.0 mg/kg/injection, schedule: Q04DX002 (ip), vehicle: Klucel (hydroxypropylcellulose) (HPC) 107 % of control | dose: 50.0 mg/kg/injection, schedule: Q04DX002 (ip), vehicle: Klucel (hydroxypropylcellulose) (HPC) 107 % of control

C=CC(=O)NC(C)C
inactive: [1] 102 % of control | [2] 104 % of control | [3] 86 % of control

O=C(O)CC(SC(CC(=O)O)C(F)(F)C(F)(F)C(F)(F)F)C(F)(F)C(F)(F)C(F)(F)F (configuration not stated)
inactive: [4] 94 % of control | dose: 100.0 mg/kg/injection, schedule: Q04DX003 (ip), vehicle: Klucel (hydroxypropylcellulose) (HPC) 108 % of control | [5] 97 % of control | dose: 200.0 mg/kg/injection, schedule: Q04DX003 (ip), vehicle: Klucel (hydroxypropylcellulose) (HPC) 97 % of control | dose: 400.0 mg/kg/injection, schedule: Q01DX009 (ip), vehicle: saline with Tween-80 94 % of control | dose: 400.0 mg/kg/injection, schedule: Q04DX003 (ip), vehicle: Klucel (hydroxypropylcellulose) (HPC) 88 % of control

CCC(C)NC(=O)Oc1cccc(NC(=O)N(C)C)c1 (configuration not stated)
inactive: [1] 92 % of control | [2] 89 % of control | [3] 90 % of control

O=S(=O)(O)c1cc(Cl)cc(Cl)c1O
inactive: dose: 100.0 mg/kg/injection, schedule: Q01DX009 (ip), vehicle: saline 96 % of control | dose: 100.0 mg/kg/injection, schedule: Q04DX003 (ip), vehicle: saline 113 % of control | dose: 200.0 mg/kg/injection, schedule: Q01DX009 (ip), vehicle: saline 100 % of control | dose: 200.0 mg/kg/injection, schedule: Q04DX003 (ip), vehicle: saline 105 % of control | dose: 400.0 mg/kg/injection, schedule: Q01DX009 (ip), vehicle: saline 105 % of control | dose: 400.0 mg/kg/injection, schedule: Q04DX003 (ip), vehicle: saline 107 % of control

O=C(CCCCCCCCC(=O)OO)OO (tested in a mixture with another compound)
inactive: [1] 98 % of control | [2] 92 % of control | [3] 90 % of control

C=C(Br)CNC(=O)C(C)C
inactive: dose: 5.0 mg/kg/injection, schedule: Q04DX003 (ip), vehicle: saline with Tween-80 102 % of control | dose: 10.0 mg/kg/injection, schedule: Q04DX003 (ip), vehicle: saline with Tween-80 103 % of control | dose: 20.0 mg/kg/injection, schedule: Q04DX003 (ip), vehicle: saline with Tween-80 102 % of control

CC(=S)SCC(C)C
inactive: dose: 50.0 mg/kg/injection, schedule: Q01DX001 (ip), vehicle: carboxymethylcellulose (CMC) 101 % of control | dose: 100.0 mg/kg/injection, schedule: Q01DX001 (ip), vehicle: carboxymethylcellulose (CMC) 101 % of control | dose: 200.0 mg/kg/injection, schedule: Q01DX001 (ip), vehicle: carboxymethylcellulose (CMC) 104 % of control | dose: 400.0 mg/kg/injection, schedule: Q01DX001 (ip), vehicle: carboxymethylcellulose (CMC) 93 % of control

CCCCOC(=O)Nc1ccc(OCC)cc1
inactive: dose: 100.0 mg/kg/injection, schedule: Q01DX001 (ip), vehicle: saline 107 % of control | dose: 200.0 mg/kg/injection, schedule: Q01DX001 (ip), vehicle: saline 95 % of control | dose: 400.0 mg/kg/injection, schedule: Q01DX001 (ip), vehicle: saline 93 % of control

CNC(=O)Oc1cccc(NC(=O)C=C(C)C)c1
inactive: [4] 91 % of control | [5] 89 % of control
